# Experimental data published in patent publication US20120208781A1, “AMINOGLYCOSIDE DOSING REGIMENS” (Achaogen, Inc., priority 2009, published 2012).
# “And” between values parts separate entries of the source, which are not always exact repeats. Identical values can stand only once.
# Tests used:
# P. aeruginosa (PA) = assay: MIC, broth microdilution, Brooklyn hospital isolates: P. aeruginosa; type: cell-based; conditions: Pseudomonas aeruginosa; PA (n = 33)
# Experimental: (§1) In another study, the activity of Compound 1 against a collection of contemporary Gram-negative bacteria was determined. Unique patient isolates of P. aeruginosa (PA), A. baumannii (AB), K. pneumoniae (KP), E. coli (EC), and Enterobacter spp. (EB) from prior surveys at 16 Brooklyn, N.Y. hospitals were selected based on resistance patterns. The majority of isolates were fingerprinted by automated ribotyping. MICs were performed by broth microdilution. PCR was used to identify aminoglycoside-modifying enzymes (AMEs) in AB and KP and the KPC gene in Enterobacteriaceae (EN). The expression of the efflux genes mexA, C, E and X in PA, and adeB in AB was assessed by real-time RT-PCR.
# P. aeruginosa (PSA) = assay: MIC, CLSI broth microdilution, worldwide isolates: P. aeruginosa; type: cell-based
# From the text: (§2) In the first study, a total of 235 isolates were collected from medical centers worldwide and tested for susceptibility to Compound 1 and comparator agents by CLSI broth microdilution methods. […] Non-ENT GN pathogens included WT P. aeruginosa (PSA) and Acinetobacter spp. (ACB), and carbapenem (CARB)-R strains, including those with MBL and OXA enzymes, SA and coagulase-negative staphylococci (CoNS) included oxacillin-susceptible (MSSA/MS-CoNS) and —R (MRSA/MR-CoNS) strains.
# (§3) Minimum inhibitory concentrations (MIC) were determined by reference Clinical and Laboratory Standards Institute (CLSI) broth microdilution methods per M7-A7 [2006]. Briefly, serial two-fold dilutions of Compound 1 and comparator AGs (together, “the test compounds”) were prepared at 2× concentration in appropriate diluent. The dilutions were mixed in 96-well assay plates with bacterial inoculum. Bacteria were suspended in sterile saline and added to each assay plate to obtain a final concentration of 5.5×10^5 CFU/mL. The plates were incubated at 35° C. for 20 hours in ambient air. […] After incubation, assay plates were read using a microtiter plate reader at 600 nm.
# Enterobacter spp. (EB) = assay: MIC, broth microdilution, Brooklyn hospital isolates: Enterobacter spp.; type: cell-based; conditions: Enterobacter; EB (n = 30)
# Experimental: as §1
# [1] = Phase 1 study 15 mg/kg/day once daily for five days: safety, BUN and Cr; type: in vivo, human; conditions: healthy subjects
# Experimental: An additional randomized, double-blind, placebo-controlled study was performed to assess the safety and pharmacokinetics of Compound 1 following IV administration to healthy adult volunteers according to a high dose, short course regimen of 15 mg/kg/day of Compound 1 administered once daily for five days. Compound 1 was formulated as a sterile solution at a concentration of 50 mg/mL in 10 mL glass vials for intravenous (IV) administration (“Compound 1 Injection”). Eight healthy subjects were randomized to receive either Compound 1 Injection or placebo administered IV by 10 minute infusion daily for five days. Seven subjects received 5 doses and one received 3 doses (early withdrawal for personal reasons).
# BUN and creatine (Cr) were assessed daily for each of the five days prior to dosing and at day 5 post-dosing to assess renal function following this high dose, short course regimen.
# [2] = system: cochlear function, vestibular function; assay: First-in-human phase 1 study: cochlear and vestibular function (ototoxicity); type: in vivo; conditions: healthy volunteers
# Experimental: Safety evaluation was based on clinical observations, vital sign measurements, laboratory tests, physical examination, electrocardiogram, cochlear function, vestibular function testing, and reported adverse events. Cochlear function was evaluated by pure tone audiometry with bone conduction and otoacoustic emission (OAE) testing. Vestibular function was evaluated by electronystagmography (ENG) and Dynamic Visual Acuity (DVA) test. Laboratory tests included complete blood count (CBC), serum chemistries, and urinalysis. BUN and creatinine (Cr) were assessed daily on dosing days to allow the Investigator to monitor renal function. Results were used as criteria for dose escalation. The glomerular filtration rate (GFR) was estimated using iothalamate plasma measurements before dosing and after the multiple dose periods. GFR was also assessed by Cr clearance before dosing and after the multiple dose periods.
# Complete physical examinations and ECGs were completed at screen and 2 days after the last multiple-dose. Abbreviated physical examinations were completed prior to the single-dose and prior to the first multiple-dose (those receiving IMP for 10 days have an additional examination prior to the 6th multiple-dose infusion). Vital signs were assessed at screen and all visits during treatment period. Additional safety assessments, including pure tone audiometry and ENG caloric, testing was performed or will be performed at 3 and 6 months after the last dose. Concomitant therapies and adverse events are assessed throughout the screen and treatment period.
# [3] = Guinea pig toxicokinetics of Compound 1; type: in vivo, guinea pigs
# Experimental: Additionally, four groups of four male and four female animals were utilized for toxicokinetic (TK) sampling and received the control or test article in the same manner as the main study groups at respective dose levels of 0 (Vehicle Control), 8, 30, or 80 mg/kg.
# Physical examinations were conducted pretest on all animals and prior to study termination for main study animals. […] Blood samples for determination of the plasma concentrations of the test article were collected from TK animals at designated time points on Day 1 and Day 14. After blood collection, the TK animals were euthanized and the carcasses were discarded.
# [4] = GLP 14-day repeat-dose safety study in dog; type: in vivo
# From the text: The guidance states that the MRSD must be derived from the no observable adverse effect level (NOAEL) obtained in Good Laboratory Practice (GLP) nonclinical animal safety studies. […] Estimation of the human equivalent dose (HED) at the NOAEL is based on both a surface area conversion factor (SACF) and the data from these studies.
# [5] = system: coagulase-negative staphylococci (CoNS); assay: MIC, CLSI broth microdilution, worldwide isolates: coagulase-negative staphylococci; type: cell-based
# From the text: as §2, §3
# [6] = Pseudomonas aeruginosa, PSA isolates
# [7] = 15 mg/kg/day IV once daily for five days, one line per Subject ID, 15 mg/kg/day
compound,measurement,setting,value
"CN[C@@H]1[C@@H](O)[C@@H](O[C@@H]2[C@@H](O)[C@H](O[C@H]3OC(CNCCO)=CC[C@H]3N)[C@@H](N)C[C@H]2NC(=O)[C@@H](O)CCN)OC[C@]1(C)O [Compound 1, 6′-(2-Hydroxy-ethyl)-1-(4-amino-2(S)-hydroxy-butyryl)-sisomicin]",MIC50,P. aeruginosa (PA),8 µg/mL
same,MIC90,P. aeruginosa (PA),16 µg/mL
same,Cumulative % inhibited at Cmpd. MIC 1,P. aeruginosa (PSA); PSA (30),3.3%
same,Cumulative % inhibited at Cmpd. MIC 2,P. aeruginosa (PSA); PSA (30),3.3%
same,Cumulative % inhibited at Cmpd. MIC 4,P. aeruginosa (PSA); PSA (30),30.0%
same,Cumulative % inhibited at Cmpd. MIC 8,P. aeruginosa (PSA); PSA (30),50.0%
same,Cumulative % inhibited at Cmpd. MIC 16,P. aeruginosa (PSA); PSA (30),76.7%
same,Cumulative % inhibited at Cmpd. MIC 32,P. aeruginosa (PSA); PSA (30),96.7%
same,Cumulative % inhibited at Cmpd. MIC 64,P. aeruginosa (PSA); PSA (30),96.7%
same,Cumulative % inhibited at Cmpd. MIC >64,P. aeruginosa (PSA); PSA (30),100.0%
same,Cumulative % inhibited at Cmpd. MIC ≦0.5,P. aeruginosa (PSA); PSA (30),0.0%
same,Cumulative % inhibited at Cmpd. MIC 1,"P. aeruginosa (PSA); PSA, CARB-R (20)",0.0%
same,Cumulative % inhibited at Cmpd. MIC 2,"P. aeruginosa (PSA); PSA, CARB-R (20)",0.0%
same,Cumulative % inhibited at Cmpd. MIC 4,"P. aeruginosa (PSA); PSA, CARB-R (20)",10.0%
same,Cumulative % inhibited at Cmpd. MIC 8,"P. aeruginosa (PSA); PSA, CARB-R (20)",25.0%
same,Cumulative % inhibited at Cmpd. MIC 16,"P. aeruginosa (PSA); PSA, CARB-R (20)",65.0%
same,Cumulative % inhibited at Cmpd. MIC 32,"P. aeruginosa (PSA); PSA, CARB-R (20)",95.0%
same,Cumulative % inhibited at Cmpd. MIC 64,"P. aeruginosa (PSA); PSA, CARB-R (20)",95.0%
same,Cumulative % inhibited at Cmpd. MIC >64,"P. aeruginosa (PSA); PSA, CARB-R (20)",100.0%
same,Cumulative % inhibited at Cmpd. MIC ≦0.5,"P. aeruginosa (PSA); PSA, CARB-R (20)",0.0%
same,Cumulative % inhibited at Cmpd. MIC 1,"P. aeruginosa (PSA); PSA, WT (10)",10.0%
same,Cumulative % inhibited at Cmpd. MIC 2,"P. aeruginosa (PSA); PSA, WT (10)",10.0%
same,Cumulative % inhibited at Cmpd. MIC 4,"P. aeruginosa (PSA); PSA, WT (10)",70.0%
same,Cumulative % inhibited at Cmpd. MIC 8,"P. aeruginosa (PSA); PSA, WT (10)",100.0%
same,Cumulative % inhibited at Cmpd. MIC ≦0.5,"P. aeruginosa (PSA); PSA, WT (10)",0.0%
same,MIC50,P. aeruginosa (PSA); [6],8 µg/mL
same,MIC90,P. aeruginosa (PSA); [6],32 µg/mL
same,MIC50,Enterobacter spp. (EB),1 µg/mL
same,MIC90,Enterobacter spp. (EB),4 µg/mL
same,severity of adverse events,"[1]; 15 mg/kg/day IV 10 minute infusion, five days",mild to moderate
same,"Serum Creatine, Pre-dose","[1]; 15 mg/kg/day IV once daily for five days, fifth pre-dose column, one line per Subject ID, 15 mg/kg/day",0.7 mg/dL (2×) and 0.8 mg/dL and 1.2 mg/dL (2×) and 1.1 mg/dL and 1.0 mg/dL
same,"BUN, Post-dose 5",[1]; [7],13 mg/dL (3×) and 14 mg/dL and 9 mg/dL and 20 mg/dL and 15 mg/dL
same,"BUN, Pre-dose 1",[1]; [7],9 mg/dL (2×) and 10 mg/dL and 13 mg/dL and 5 mg/dL and 15 mg/dL and 19 mg/dL and 14 mg/dL
same,"BUN, Pre-dose 2",[1]; [7],18 mg/dL and 16 mg/dL and 19 mg/dL and 17 mg/dL (2×) and 8 mg/dL and 20 mg/dL and 22 mg/dL
same,"BUN, Pre-dose 3",[1]; [7],13 mg/dL and 18 mg/dL (2×) and 19 mg/dL and 17 mg/dL and 9 mg/dL and 15 mg/dL and 14 mg/dL
same,"BUN, Pre-dose 4",[1]; [7],13 mg/dL and 14 mg/dL (2×) and 12 mg/dL and 8 mg/dL and 17 mg/dL and 19 mg/dL and 16 mg/dL
same,"BUN, Pre-dose 5",[1]; [7],16 mg/dL (3×) and 13 mg/dL and 14 mg/dL and 11 mg/dL and 15 mg/dL
same,"Serum Creatine, Post-dose 5",[1]; [7],0.6 mg/dL (2×) and 1.0 mg/dL and 0.7 mg/dL and 1.1 mg/dL and 0.9 mg/dL (2×)
same,"Serum Creatine, Pre-dose 1",[1]; [7],0.7 mg/dL (2×) and 0.6 mg/dL (2×) and 0.9 mg/dL (2×) and 1.2 mg/dL and 1.0 mg/dL
same,"Serum Creatine, Pre-dose 2",[1]; [7],0.7 mg/dL and 0.6 mg/dL (2×) and 0.9 mg/dL (2×) and 1.1 mg/dL (2×) and 1.3 mg/dL
same,"Serum Creatine, Pre-dose 3",[1]; [7],0.6 mg/dL (3×) and 0.7 mg/dL and 1.0 mg/dL and 1.1 mg/dL and 0.9 mg/dL and 0.8 mg/dL
same,"Serum Creatine, Pre-dose 4",[1]; [7],0.6 mg/dL (4×) and 1.0 mg/dL and 1.2 mg/dL and 0.9 mg/dL (2×)
same,changes in BUN or Cr at day 5 post-dosing,"[1]; 15 mg/kg/day IV, five days",no substantial changes in either BUN or Cr
same,tolerability,"[1]; 15 mg/kg/day IV, five days",well-tolerated
same,ototoxicity or nephrotoxicity,"[1]; 15 mg/kg/day IV, five days, through the treatment period",No evidence of ototoxicity or nephrotoxicity
same,"cochlear function (pure tone audiometry, bone conduction, OAE)",[2],did not reveal any treatment related effects
same,ototoxicity signal,[2],No ototoxocity signal
same,vestibular function (ENG and DVA),[2],did not reveal any treatment related effects
same,guinea pig AUC relative to average human AUC at proposed clinical dose,[3]; 80 mg/kg/day guinea pig vs 15 mg/kg human,1.5 ×
same,AUC,"[3]; both sexes, Crl:HA (Albino Hartley), guinea pig, plasma, subcutaneous, guinea pigs, 80 mg/kg/day",370 µg·h/mL
same,NOAEL at 14 days,"[4]; dog, in vivo",3 mg/kg
same,HED,"[4]; from dog NOAEL, SACF 1.8",1.7 mg/kg
same,new toxicities,[4]; nonclinical GLP safety studies in dogs,no new toxicities apart from those already known to the class
same,cardiac or respiratory safety signals,[4]; nonclinical GLP studies in dogs,no cardiac or respiratory safety signals
same,MIC50,[5]; CONS isolates,≤ 0.25 µg/mL
same,MIC90,[5]; CONS isolates,≤ 0.25 µg/mL
same,Cumulative % inhibited at Cmpd. MIC ≦0.5,[5]; CoNS (20),100.0%
